Measured values from ChEMBL document CHEMBL1201862, “PubChem BioAssay data set” (2004).
Where a name gives a salt, the structure may show the parent alone.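 Exposure lasted 48 hours, with cells grown in 96-well plates and compounds tested at five concentrations. Abbreviation: GI50, concentration required for 50% inhibition of growth.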 The source made the active and inactive calls. No stated cut-off is given here; in the data, active = GI50 up to about 1.1 µM and inactive = higher.

How the values were obtained:
Experiment in all cases: growth of human tumour cells (NCI), 48 h
[1] = test system: CCRF-CEM
[2] = test system: COLO 205
[3] = test system: HCT-15
[4] = test system: HL-60
[5] = test system: HOP-62
[6] = test system: Hs-578T
[7] = test system: IGROV-1
[8] = test system: K562
[9] = test system: MDA-MB-231
[10] = test system: MDA-MB-435
[11] = test system: MDA-N
[12] = test system: NCI-H522
[13] = test system: NCI/ADR-RES
[14] = test system: OVCAR-3
[15] = test system: RPMI-8226
[16] = test system: SK-MEL-28
[17] = test system: SK-OV-3
[18] = test system: SN12C
[19] = test system: SR
[20] = test system: U-251

| Compound | GI50 [1] | GI50 [2] | GI50 [3] | GI50 [4] | GI50 [5] | GI50 [6] | GI50 [7] | GI50 [8] | GI50 [9] | GI50 [10] | GI50 [11] | GI50 [12] | GI50 [13] | GI50 [14] | GI50 [15] | GI50 [16] | GI50 [17] | GI50 [18] | GI50 [19] | GI50 [20] |
| --- | --- | --- | --- | --- | --- | --- | --- | --- | --- | --- | --- | --- | --- | --- | --- | --- | --- | --- | --- | --- |
| N#Cc1c(N2CCCC2)ncn(-c2ccccc2)c1=O | > 100 µM (inactive) | > 100 µM (inactive) | > 100 µM | > 100 µM (inactive) | > 100 µM (inactive) | > 100 µM (inactive) | > 100 µM (inactive) | > 100 µM (inactive) | > 100 µM (inactive) | > 100 µM (inactive) | > 100 µM (inactive) | > 100 µM (inactive) | > 100 µM (inactive) | > 100 µM (inactive) | > 100 µM (inactive) | > 100 µM (inactive) | > 100 µM (inactive) | > 100 µM (inactive) | > 100 µM (inactive) | > 100 µM (inactive) |
| O=C(/C=C/c1ccc([N+](=O)[O-])cc1)N1CCN(CCOC(c2ccc(F)cc2)c2ccc(F)cc2)CC1 | 7.01 µM (inactive) | 11.5 µM (inactive) | 19.1 µM | 9.68 µM (inactive) | > 100 µM (inactive) | > 100 µM (inactive) | 56.9 µM (inactive) | 4.99 µM (inactive) | > 100 µM (inactive) | 9.84 µM (inactive) | 27.1 µM (inactive) | 63.5 µM (inactive) | 4.72 µM (inactive) | > 100 µM (inactive) | 3.78 µM (inactive) | > 100 µM (inactive) | > 100 µM (inactive) | 4.04 µM (inactive) | 7.21 µM (inactive) | > 100 µM (inactive) |
| CN(C)c1c(Cl)c(=O)oc2c1ccc1nc(-c3ccccc3)sc12 | > 100 µM (inactive) | > 100 µM (inactive) | > 100 µM | > 100 µM (inactive) | 98.9 µM (inactive) | > 100 µM (inactive) | > 100 µM (inactive) | > 100 µM (inactive) | > 100 µM (inactive) | > 100 µM (inactive) | > 100 µM (inactive) | > 100 µM (inactive) | > 100 µM (inactive) | > 100 µM (inactive) | > 100 µM (inactive) | > 100 µM (inactive) |  | > 100 µM (inactive) | > 100 µM (inactive) | > 100 µM (inactive) |
| Oc1ccc(Cl)cc1-c1cc(-c2ccccc2)nc(NCN2CCCCC2)n1 |  | > 100 µM (inactive) | 5.02 µM | > 100 µM (inactive) | > 100 µM (inactive) | > 100 µM (inactive) | > 100 µM (inactive) | > 100 µM (inactive) | > 100 µM (inactive) | > 100 µM (inactive) | > 100 µM (inactive) | > 100 µM (inactive) | > 100 µM (inactive) | > 100 µM (inactive) | > 100 µM (inactive) | > 100 µM (inactive) | > 100 µM (inactive) | > 100 µM (inactive) | 4.19 µM (inactive) | > 100 µM (inactive) |
| CC1(C)C=C(/C=N/Nc2ccccc2)C(C#N)=C(O)C1(C#N)C#N | 68.4 µM (inactive) | 74.1 µM (inactive) |  | 41.9 µM (inactive) | > 100 µM (inactive) | > 100 µM (inactive) | > 100 µM (inactive) | 56.5 µM (inactive) | > 100 µM (inactive) | > 100 µM (inactive) | > 100 µM (inactive) | > 100 µM (inactive) | > 100 µM (inactive) | > 100 µM (inactive) | 52.5 µM (inactive) | > 100 µM (inactive) | > 100 µM (inactive) | > 100 µM (inactive) | 31.3 µM (inactive) |  |
| COC(=O)[C@]12CC=C3O[C@@H]4OC5(CCCCC5)O[C@@H]4[C@H]3C1C(=O)C=CC2=O (some centres undefined) | 4.13 µM (inactive) | 15.7 µM (inactive) | 15.6 µM | 8.91 µM (inactive) | 21 µM (inactive) | 26.1 µM (inactive) | 18.4 µM (inactive) | 14.6 µM (inactive) | 16.8 µM (inactive) | > 10 µM (inactive) | 19.1 µM (inactive) | 5.53 µM (inactive) | 18.1 µM (inactive) | 8.81 µM (inactive) | 7.64 µM (inactive) | 18.9 µM (inactive) | 30.7 µM (inactive) | 18.4 µM (inactive) | 22.3 µM (inactive) | 18.7 µM (inactive) |
| Cc1cccc2c1NC(=S)[C@@H]1CCCN1C2=O | > 100 µM (inactive) | > 100 µM (inactive) | > 100 µM |  | > 100 µM (inactive) | > 100 µM (inactive) | > 100 µM (inactive) | > 100 µM (inactive) | > 100 µM (inactive) | > 100 µM (inactive) | > 100 µM (inactive) | > 100 µM (inactive) | > 100 µM (inactive) | > 100 µM (inactive) | > 100 µM (inactive) | > 100 µM (inactive) | > 100 µM (inactive) | > 100 µM (inactive) | > 100 µM (inactive) | > 100 µM (inactive) |
| CC(C)[Si](OCC/C=C/C1CCC(=O)C1C(O)C1CCCCC1)(C(C)C)C(C)C (centres undefined) | 19.5 µM (inactive) | 16.3 µM (inactive) | 16.3 µM |  | 16.9 µM (inactive) | 18.1 µM (inactive) | 15.1 µM (inactive) | 17.2 µM (inactive) | 18.8 µM (inactive) | 17.9 µM (inactive) | 19.2 µM (inactive) | 12 µM (inactive) | 13.9 µM (inactive) | 16.5 µM (inactive) | 13.7 µM (inactive) | 15.1 µM (inactive) | 15.7 µM (inactive) | 18.2 µM (inactive) | 4.29 µM (inactive) | 15.8 µM (inactive) |
| Cn1c(=O)oc2cc(C(=S)N3CCC(Cc4ccccc4)CC3)ccc21 | > 100 µM (inactive) | > 100 µM (inactive) | > 100 µM | > 100 µM (inactive) | > 100 µM (inactive) | > 100 µM (inactive) | > 100 µM (inactive) | 61.7 µM (inactive) | > 100 µM (inactive) | 91.8 µM (inactive) | > 100 µM (inactive) |  | > 100 µM (inactive) | > 100 µM (inactive) | 62.1 µM (inactive) | > 100 µM (inactive) | > 100 µM (inactive) | > 100 µM (inactive) | 72.3 µM (inactive) | 64.7 µM (inactive) |
| CCOC(=O)CCN1C(=O)C(=O)N(c2ccc(OC)cc2)C1=S | > 100 µM (inactive) | > 100 µM (inactive) | > 100 µM | > 100 µM (inactive) | > 100 µM (inactive) | 47.1 µM (inactive) | > 100 µM (inactive) | 54.6 µM (inactive) | > 100 µM (inactive) | > 100 µM (inactive) | 97.5 µM (inactive) | 14.8 µM (inactive) | > 100 µM (inactive) |  | > 100 µM (inactive) | > 100 µM (inactive) | > 100 µM (inactive) | > 100 µM (inactive) | > 100 µM (inactive) | > 100 µM (inactive) |
| CN(C)CCOc1ccc(/C(=C(/CCCl)c2ccccc2)c2ccccc2)cc1 [TOREMIFENE CITRATE] | 6.1 µM (inactive) | 19.4 µM (inactive) | 14.7 µM | 5.13 µM (inactive) | 15.5 µM (inactive) | 17.2 µM (inactive) | 21.4 µM (inactive) | 11.5 µM (inactive) | 16.4 µM (inactive) | 17.4 µM (inactive) | 16.4 µM (inactive) | 16.5 µM (inactive) | 13.7 µM (inactive) | 11.9 µM (inactive) | 4.45 µM (inactive) | 16 µM (inactive) |  | 16.7 µM (inactive) | 3.23 µM (inactive) | 17.8 µM (inactive) |
| O=C(O)c1cccc(OCCOc2cccc(C(=O)O)c2[N+](=O)[O-])c1[N+](=O)[O-] | > 100 µM (inactive) | > 100 µM (inactive) | > 100 µM | > 100 µM (inactive) | > 100 µM (inactive) | > 100 µM (inactive) | > 100 µM (inactive) |  | > 100 µM (inactive) | > 100 µM (inactive) | > 100 µM (inactive) | > 100 µM (inactive) | > 100 µM (inactive) | > 100 µM (inactive) | > 100 µM (inactive) | > 100 µM (inactive) | > 100 µM (inactive) | > 100 µM (inactive) | > 100 µM (inactive) | > 100 µM (inactive) |
| Cc1ccc(S(=O)(=O)NCCCSCCO)cc1 | 33.3 µM (inactive) | 18.3 µM (inactive) | > 100 µM | 26.1 µM (inactive) |  | 30.5 µM (inactive) |  | 38.4 µM (inactive) | 27.7 µM (inactive) | 45.2 µM (inactive) | 55 µM (inactive) | > 100 µM (inactive) | > 100 µM (inactive) | 31.6 µM (inactive) |  | > 100 µM (inactive) | > 100 µM (inactive) | 43 µM (inactive) | > 100 µM (inactive) | 8.26 µM (inactive) |
| COc1ccc2c(c1)/C(=C(\C(Cl)=C(\Cl)N1CCCCC1)[N+](=O)[O-])N2 | 40.7 µM (inactive) | 59.2 µM (inactive) | > 100 µM | > 100 µM (inactive) | > 100 µM (inactive) | > 100 µM (inactive) | 90.6 µM (inactive) | 42.1 µM (inactive) | > 100 µM (inactive) | > 100 µM (inactive) | > 100 µM (inactive) | 39.4 µM (inactive) | > 100 µM (inactive) | 42.5 µM (inactive) |  | > 100 µM (inactive) | > 100 µM (inactive) | > 100 µM (inactive) | 27.1 µM (inactive) | > 100 µM (inactive) |
| COc1cc(C2SCC(=O)N2c2cccc(Cl)c2)cc(OC)c1OC (centres undefined) | 27.7 µM (inactive) | > 100 µM (inactive) | 72.3 µM | 35.3 µM (inactive) |  | > 100 µM (inactive) | 65.9 µM (inactive) | 36.1 µM (inactive) | > 100 µM (inactive) | 29.5 µM (inactive) | 17.2 µM (inactive) | 21.2 µM (inactive) | 71.9 µM (inactive) |  | 45.7 µM (inactive) | > 100 µM (inactive) | > 100 µM (inactive) | 56.9 µM (inactive) | 28.4 µM (inactive) | > 100 µM (inactive) |
